For 13 compounds, TGI results are on record in PubChem BioAssay (NCI).

Common to all, as to experiment: inhibition of tumour cell growth, NCI panel, 48 h
For experiment [1], the system named is MDA-MB-435.
Experiment [2] concerns MALME-3M melanoma.
Experiment [3] has as its system SF-539 CNS.
Experiment [4] relates to K-562 leukemia.
For experiment [5], the system named is 786-0 renal.
The test system of experiment [6] is A549 NSCLC.
The test system of experiment [7] is UO-31 renal.
Experiment [8] relates to UACC-257 melanoma.
In experiment [9] the test system is HCC-2998 colon.
The test system of experiment [10] is OVCAR-4 ovarian.
The subject of experiment [11] is SK-MEL-2 melanoma.
In experiment [12] the test system is HL-60(TB) leukemia.

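How tested: cells in 96-well plates exposed to compound for 48 hours at five concentrations. At the TGI there is no net growth.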

For `S=C(N/N=C\C=N/NC(=S)N1CCCCC1)N1CCCCC1`, the TGI is more than 100 µM in experiment [1]; more than 35 µM in experiment [2]; more than 100 µM in experiment [3]; more than 100 µM in experiment [4]; more than 31.6 µM in experiment [5]; more than 100 µM in experiment [6]. Moreover, the TGI is more than 63.1 µM in experiment [7], more than 100 µM in experiment [8] and more than 100 µM in [9].
In the case of `COC(=O)C1(C(=O)OC)CC2=C(S(=O)(=O)c3ccccc3)C[C@H](S(=O)(=O)c3ccccc3)[C@H]2C1`, the TGI in experiment [1] is more than 100 µM; in [2], more than 100 µM; in experiment [4], 58.5 µM; in experiment [5], more than 100 µM; in [6], more than 100 µM; in [7], more than 100 µM. Besides, the TGI is more than 100 µM in [8], more than 100 µM in experiment [10], more than 100 µM in experiment [11] and 29.5 µM in experiment [9].
As to `O=C(/C=C/c1ccc(O)c([N+](=O)[O-])c1)CC(=O)/C=C/c1ccc(O)c([N+](=O)[O-])c1`, the TGI in [1], in [3], in [5], in [6], in experiment [7] and in [8] was more than 100 µM throughout. For the same compound, the TGI is more than 100 µM in experiment [10], more than 100 µM in experiment [11] and 44.6 µM in experiment [12].
On to `COc1ccc(C2CC(c3c(O)ccc4ccccc34)=NN2c2ccc([N+](=O)[O-])cc2[N+](=O)[O-])cc1OC` (centres undefined), for which the TGI in experiment [1] was more than 100 µM; in experiment [2] it was 56.4 µM; in [3], more than 79.8 µM; in experiment [4], 20.2 µM; in experiment [5] it was more than 100 µM; in experiment [6] it was 98.3 µM. Besides, the TGI is 97.4 µM in experiment [7]; more than 93.9 µM in experiment [8]; more than 100 µM in [10]; more than 65.1 µM in experiment [11]; more than 100 µM in experiment [9].
For the compound `COC(=O)CC(C(C(=O)OC)C(=O)OC)N1C(=O)OCC1c1ccccc1` (centres undefined), the TGI in experiment [2], in experiment [3], in experiment [4], in experiment [5], in experiment [6] and in experiment [7] was more than 100 µM in each case. Further, the TGI in [8], in [10], in experiment [11], in experiment [9] and in experiment [12] was more than 100 µM each time.
As to `CN(C)/N=N/c1nc2c(c(=O)n(C)c(=O)n2C)n1C`, the TGI in [1], in experiment [2], in experiment [4], in [5], in experiment [6] and in experiment [7] was more than 100 µM each time. Moreover, the TGI in [8], in [10], in [11] and in experiment [9] was more than 100 µM each time.
Turning to `CN(C)CCCOc1nc2c(c(=O)n(C)c(=O)n2C)n1C` (tested in a mixture with another compound), the TGI in experiment [1] is more than 100 µM; in experiment [2], 27.4 µM; in experiment [3], 58.3 µM; in experiment [4] it was more than 100 µM; in experiment [5], more than 100 µM; in [6], more than 100 µM. For the same compound, the TGI in experiment [7], in experiment [8], in [10] and in experiment [11] was more than 100 µM each time.
With `CCCc1cc(=O)c2c(C)c3[nH]c4ccc(Cl)cc4c3c(C)c2[nH]1`, the TGI in [1] stood at 3.11 µM; in experiment [2], 23 µM; in [3], 3.56 µM; in [5], 3.08 µM; in experiment [6], 4.81 µM; in experiment [7], 3.34 µM. The TGI was determined as 4.74 µM in experiment [8], 3.43 µM in experiment [10], 14.6 µM in [11] and 3.02 µM in [9].
Regarding `CC1=C(O)C(=O)[C@@H]2O[C@@H]2C1=O`, the TGI in experiment [2] was 17.2 µM; in experiment [3] it was 41.9 µM; in experiment [4] it was 42.7 µM; in experiment [6] it was 99 µM; in experiment [7], 54.1 µM; in [8] it was 23.9 µM. In addition, the TGI in experiment [10] turned out to be 28.5 µM; in experiment [11], 38.1 µM; in experiment [9], 35.6 µM; in experiment [12], 8.59 µM.
For the compound `O=c1[nH]n2c(=O)cc[nH]c2c1-c1nnns1`, the TGI in experiment [2], in [3], in experiment [4], in [5], in [6] and in experiment [7] was more than 100 µM each time. For the same compound, the TGI in [10], in [11], in [9] and in experiment [12] was more than 100 µM each time.
Regarding `NC(N)=NS(=O)(=O)c1ccc(NCc2c3ccccc3[n+]([O-])c3ccccc23)cc1`, the TGI is 51.5 µM in experiment [2]; more than 100 µM in [4]; more than 100 µM in experiment [5]; more than 100 µM in experiment [6]; 73.8 µM in experiment [7]; more than 100 µM in experiment [8]. For the same compound, the TGI in [10] is 85.3 µM; in experiment [11] it was more than 100 µM; in experiment [9] it was more than 100 µM; in experiment [12], 44.4 µM.
Regarding `O=C(CC(=O)n1nc(-c2ccccc2)c(N=Nc2ccccc2C(=O)O)c1-c1ccccc1)Nc1ccc(Cl)cc1`, the TGI in experiment [2] was more than 100 µM; in [4], more than 100 µM; in experiment [5], more than 100 µM; in experiment [6], more than 100 µM; in [7], 47.8 µM; in experiment [8], more than 100 µM. The TGI in experiment [11] is more than 100 µM; in experiment [9], more than 100 µM; in [12], 40.9 µM.
On to `COc1ccc(C(C#N)NNC(=O)c2ccccc2O)cc1OC` (centres undefined), for which the TGI in experiment [2] is more than 100 µM; in experiment [3], 6.81 µM; in experiment [4] it was more than 100 µM; in experiment [5], more than 100 µM; in experiment [6], more than 100 µM; in experiment [7] it was 2.2 µM. Moreover, the TGI in experiment [8] is more than 100 µM; in experiment [10], more than 100 µM; in experiment [11] it was 78.2 µM; in [12] it was 30.2 µM.
